Results as given in PMC6456166, “Mitochondrial type II NADH dehydrogenase of Plasmodium falciparum (PfNDH2) is dispensable in the asexual blood stages” (PLoS ONE, 2019).

Biological target: T1, cytochrome bc1 complex (cytochrome b, cyt b) (Plasmodium falciparum, UniProt Q02768)
T1 construct: gene MT-CYB; native bc1 complex in mitochondria-enriched preparations from D10 WT and ΔPfNDH2 parasites; with other subunits of the bc1 complex (Complex III)
T1 sequence (Q02768 1-376): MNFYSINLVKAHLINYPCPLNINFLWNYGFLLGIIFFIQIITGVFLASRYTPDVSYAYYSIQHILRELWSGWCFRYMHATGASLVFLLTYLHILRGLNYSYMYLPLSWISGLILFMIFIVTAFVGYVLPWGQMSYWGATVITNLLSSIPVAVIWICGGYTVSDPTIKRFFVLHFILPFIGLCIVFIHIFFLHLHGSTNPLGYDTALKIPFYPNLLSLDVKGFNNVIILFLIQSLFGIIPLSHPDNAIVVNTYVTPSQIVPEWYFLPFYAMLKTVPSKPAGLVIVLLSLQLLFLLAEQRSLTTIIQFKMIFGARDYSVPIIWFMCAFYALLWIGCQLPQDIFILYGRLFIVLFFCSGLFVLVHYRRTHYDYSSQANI
Test: ubiquinol-cytochrome c reductase assay in isolated parasite mitochondria ([…] nm), dose-dependent inhibition in WT and ΔPfNDH2
Format: cell-based

For `CCCCCCCCCCCCc1cc(=O)c2ccccc2n1O` [HDQ, 1-hydroxy-2-dodecyl-4(1H) quinolone], the “ubiquinol-cytochrome c reductase assay in isolated parasite mitochondria (550 nm)” value was “HDQ and CK-2-68 inhibited the ubiquinol-cytochrome c reductase activity in the mitochondria of ΔPfNDH2 and WT”.
